Ends that are not written are not given here.
Columns and labels:
[1] = test system: ovary; experiment: Mouse ovary-targeting capacity of polypeptide ICG probe (small animal imaging); format: in vivo; settings: adult mice, tail vein injection 100 μL/mouse, imaged after 24 h; FIG. 1
Protocol: A solution of the polypeptide ICG probe (containing SEQ ID NO: 1) prepared in Example 2, an ICG solution (2 mM), and PBS were injected intravenously into the tail of the adult mice at 100 μL/mouse. After 24 h, the mice were detected under an imager for small animals.

[2] = test system: ovary; experiment: Mouse ovary-targeting capacity of polypeptide AIE probe (small animal imaging); format: in vivo; settings: adult mice, tail vein injection 100 μL/mouse, imaged after 24 h; FIG. 2
Protocol: The polypeptide AIE probe (containing SEQ ID NO: 1) prepared in Example 2, a scrambled polypeptide AIE probe, an AIE empty particle, and PBS were injected intravenously into the tail of the adult mice at 100 μL/mouse. After 24 h, the mice were detected under an imager for small animals.

[3] = test system: mouse ovary; experiment: Localization of polypeptide targeting in mouse ovary (cryosection, laser confocal microscope); format: in vivo; settings: ovaries from Example 4, 10 μm cryosections, DAPI; FIG. 3
Text: To further confirm the localization for the targeting of the polypeptide to the ovary, the four groups of mouse ovaries from Example 4 were fixed with 4% PFA, then cryosectioned (10 μm), stained for cell nuclei (DAPI), and observed for fluorescence localization under a laser confocal microscope.

[4] = test system: DHT-induced hyperandrogenic female mice; experiment: Hyperandrogen dihydrotestosterone (DHT)-induced mouse model, reproductive and metabolic symptoms; format: in vivo
Protocol: (§1) Wild type female mice at postnatal day 25 (D25) were randomly grouped into a control group (CTRL), a DHT group, and a DHT+OCN15 ([…] is the polypeptide set forth in SEQ ID NO: 1) group, with at least 8 mice in each group. The control group was implanted subcutaneously with an empty pump and gavaged with 200 μL of normal saline every day; the DHT group was implanted subcutaneously with a slow-release pump containing 5 mg of dihydrotestosterone (DHT) powder and gavaged with 200 μL of normal saline every day; and the DHT+OCN15 group was implanted subcutaneously with a slow-release pump containing 5 mg of DHT powder and gavaged with 200 μl of normal saline containing the polypeptide (500 μg/Kg) every day. The modeling time was 60 days.

[5] = test system: DHT model mice liver; experiment: Hyperandrogen-induced mouse liver lipid droplet accumulation (HE staining); format: in vivo; settings: DHT+OCN15 treated group vs DHT model mice; FIG. 9
Protocol: as §1
The method for the induction of the mouse PCOS model by hyperandrogen DHT is described in Example 6. After modeling, the mouse liver was taken, fixed overnight by 4% paraformaldehyde (PFA), dehydrated by alcohol gradient, embedded by paraffin, sectioned (5 μm), and subjected to HE staining for morphological observation.

[6] = test system: oocytes; experiment: Oocyte post-ovulation aging model (in vitro aging in M16 medium); format: cell-based, mouse
Protocol: Wild type female mice were intraperitoneally injected with 5 IU PMSG (pregnant mare serum gonadotropin), followed by an intraperitoneal injection of 5 IU hCG (human chorionic gonadotropin) 48 h later for superovulation. Oocytes were collected after 14 h, and cumulus cells were removed using hyaluronidase. Then, the oocytes were randomly divided into the Aging group and the Aging+OCN15 group and cultured in M16 medium for aging. The Control group was aged for 0 h, the Aging group for 12 h, and the Aging+OCN15 group in M16 containing the polypeptide (1 μg/mL) for 12 h.

Compound: CC1(C)C(/C=C/C=C/C=C/C=C2\N(CCCCS(=O)(=O)[O-])c3ccc4ccccc4c3C2(C)C)=[N+](CCCCS(=O)(=O)[O-])c2ccc3ccccc3c21.[Na+] [ICG, reference compound]
- fluorescent signal at the ovarian site [1]: do not show a fluorescent signal at the ovarian site

Compound: OCN15-AIE: AIE probe containing SEQ ID NO: 1, polypeptide linked to AIE by click chemistry (DBCO linker) (YLGASVPSPDPLEPT; also: AIE probe attached via DBCO click linker, site not given here)
- fluorescent signal at the ovarian site [2]: has a specific signal at the ovarian site
- fluorescence localization in the ovary [3]: mainly targets the interstitial cell and the membrane cell in the mouse ovary

Compound: OCN15-ICG: ICG probe containing SEQ ID NO: 1, polypeptide linked to ICG by click chemistry (DBCO linker) (YLGASVPSPDPLEPT; also: ICG dye attached via DBCO click linker, site not given here)
- fluorescent signal at the ovarian site [1]: has a specific signal at the ovarian site

Compound: YLGASVPSPDPLEPT [OCN15, mouse metabolite, ovary-targeting polypeptide]
- anogenital distance ([4]; 500 μg/Kg gavage daily with DHT pump, 60 days after modeling, FIG. 4C): significantly improved
- number of estrous days in ten days ([4]; 500 μg/Kg gavage daily with DHT pump, 60 days modeling, normal above 4 days, hyperandrogenic around 2 days, FIG. 4B): ~3 days
- ovarian polycystic changes ([4]; 500 μg/Kg gavage daily with DHT pump, 60 days, FIG. 4A): reduce the polycystic changes
- body weight ([4]; 500 μg/Kg gavage daily with DHT pump, FIG. 5A): alleviate the increase in body weight
- body weight gain ([4]; 500 μg/Kg gavage daily with DHT pump, FIG. 5B): alleviate the increase in body weight and body weight gain caused by DHT to some extent
- weight of gonadal fat ([4]; 500 μg/Kg gavage daily with DHT pump, FIG. 5C): reducing the weight of mouse gonadal fat
- lean body mass ([4]; 500 μg/Kg gavage daily with DHT pump, FIG. 5D): increased lean body mass
- blood glucose level after oral administration of glucose ([4]; at 30 min after oral glucose, 60 days after modeling, FIG. 4D): significant decrease in blood glucose level compared with the group with DHT alone
- androgen receptor AR expression in the epidermal layer of the neck and back skin ([4]; day 60 of modeling, immunofluorescence, FIG. 6B): significantly reduce DHT-caused significant increase of androgen receptor AR expression
- hair loss on the neck and back skin ([4]; day 60 of modeling, FIG. 6A): can significantly improve the phenomenon
- liver lipid droplet accumulation [5]: alleviated
- oocyte fragmentation and degeneration ([6]; 1 μg/mL polypeptide in M16, 12 h aging, FIG. 7A): ameliorate the fragmentation and degeneration caused by in vitro aging of oocytes
- zona pellucida sclerosis ([6]; 1 μg/mL polypeptide in M16, 12 h aging, FIG. 7B): ameliorate the zona pellucida sclerosis caused by in vitro aging of oocytes
- in vitro fertilization rate ([6]; 1 μg/mL polypeptide in M16, 12 h in vitro aging, FIG. 7C): improve the low fertilization rate caused by in vitro aging of oocytes

— patent publication US20250057911A1, “OVARY-TARGETING POLYPEPTIDE, AND DERIVATIVE AND THE USE THEREOF” (SHENZHEN INSTITUTES OF ADVANCEDTECHNOLOGY CHINESE ACADEMY …, priority 2022, published 2025)
